Laboratory results reported in PubChem BioAssay AID1996.
Converted amounts (≈) assume the structure as drawn.

Settings: buffer; pH 7.4; 200.0 µM

COc1ccccc1NC(=O)C(=O)/C=C(\O)c1ccccc1 and Cc1ccc(CNC(=O)CCCC(=O)c2ccccc2)cc1 are within 1.5-fold of each other in solubility kinetic: 10.8 µg/mL (≈ 36.3 µM) for the first, 7.9 µg/mL (≈ 26.7 µM) for the second.

O=C(O)/C=C/C(=O)Nc1ccc(S(=O)(=O)Nc2nccs2)cc1 and CC(C)CC(=O)Nc1ccc(S(=O)(=O)N2CCCC2)cc1 cannot be ordered by solubility kinetic: > 53 µg/mL for the first, > 46.6 µg/mL for the second.

Going from CN(C)C(=O)N1CCN(c2nc(-c3ccccc3)cs2)CC1 to COc1ccccc1NS(=O)(=O)c1ccc(C)c(C(=O)N2CCN(c3ccc(O)cc3)CC2)c1.Cl, the solubility kinetic rises from 40.3 µg/mL (≈ 127 µM) to > 77.7 µg/mL.

First: CCN(C(=O)/C=C/c1ccccc1)C1CCCCC1
Second: O=C(NC(=S)Nc1ccccc1)C1CCCCC1
The solubility kinetic of the first is higher: > 38.6 µg/mL for the first, 0.6 µg/mL (≈ 2.29 µM) for the second.

CS(=O)(=O)N(CC(=O)Nc1cccc(Br)c1)Cc1ccccc1 and COC(C(=O)Nc1c(F)cccc1F)c1ccccc1 (centres undefined) cannot be ordered by solubility kinetic: 51.3 µg/mL (≈ 129 µM) for the first, > 41.6 µg/mL for the second.

First: Cc1cc(=O)oc2cc(OCC(=O)Nc3cccnc3)ccc12
Second: NC(=O)COc1ccc2cc(-c3ccc(F)cc3)c(=O)oc2c1
The solubility kinetic of the first is higher: 10.5 µg/mL (≈ 33.8 µM) for the first, < 0.7 µg/mL for the second.

Going from COC(=O)c1ccc(NC(=O)c2ccc3c(c2)C(=O)N(C)C3=O)cc1 to COc1ccc(C(=O)CC(=O)C(=O)Nc2cccc(C(C)=O)c2)cc1, the solubility kinetic rises from < 0.4 µg/mL to 13.9 µg/mL (≈ 41 µM).

First: Cc1nc(-c2ccccn2)sc1C(=O)O
Second: N/C(=N\OC(=O)c1ccc([N+](=O)[O-])cc1Cl)c1ccccn1
The solubility kinetic of the first is higher: > 33 µg/mL for the first, 12.8 µg/mL (≈ 39.9 µM) for the second.

Cc1ccc(C)c(NC(=S)N(C)CCO)c1 and COc1ccc2[nH]c(=O)c(CNc3ccc(C)cc3C)cc2c1 cannot be ordered by solubility kinetic: > 35.8 µg/mL for the first, 41.5 µg/mL (≈ 135 µM) for the second.

Going from CS(=O)(=O)N1CCSC1c1ccc(Br)cc1 (centres undefined) to O=S(=O)(c1ccc(Br)c2ccccc12)N1CCOCC1, the solubility kinetic falls from 47.8 µg/mL (≈ 148 µM) to 17.4 µg/mL (≈ 48.8 µM) (2.7-fold).

O=C(OCC(=O)N1CCOCC1)c1ccc2ccccc2c1O and Cl.O=C(OCCN1CCOCC1)c1ccccc1 are within 1.5-fold of each other in solubility kinetic: 28.2 µg/mL (≈ 89.4 µM) for the first, 39.6 µg/mL for the second.

Going from NC(=O)c1ccc(NC(=O)COC(=O)c2ccc3ccccc3n2)cc1 to COC(=O)[C@@H](C)NC(=O)c1ccc2oc(CCc3ccccc3)nc2c1, the solubility kinetic rises from 18.8 µg/mL (≈ 53.8 µM) to 41 µg/mL (≈ 116 µM) (2.2-fold).

Compared with CCc1ccccc1NC(=O)[C@@H]1CCC(=O)N1C1OC(=O)c2ccccc21 (some centres undefined), N#Cc1ccccc1NC(=O)COc1ccc2c(c1)OCO2 is lower in solubility kinetic: > 54.7 µg/mL for the first, 17.1 µg/mL (≈ 57.7 µM) for the second.

First: Cc1cccc(C)c1NC(=O)N1CCC(C(=O)c2ccc(F)cc2)CC1
Second: CC(=O)Nc1ccc(NC(=O)C2CC(=O)N(C(C)C)C2)cc1 (centres undefined)
The solubility kinetic of the first is 2.8-fold lower: 15.4 µg/mL (≈ 43.5 µM) for the first, 43.4 µg/mL (≈ 143 µM) for the second.

O=C1CS/C(=C/C(=O)c2cccc(Cl)c2)N1 and O=C(CN1C(=O)NC2(CCCCCCC2)C1=O)NCc1ccc(Cl)cc1 are within 1.5-fold of each other in solubility kinetic: 10.5 µg/mL (≈ 41.4 µM) for the first, 9.9 µg/mL (≈ 26.2 µM) for the second.

Compared with O=C(COC(=O)C12CC3CC(CC(C3)C1)C2)Nc1ccc2[nH]c(=O)[nH]c2c1, Cc1ccc(NS(=O)(=O)c2ccc3[nH]c(=O)[nH]c3c2)c(C)c1 is 3.8-fold higher in solubility kinetic: 1.3 µg/mL (≈ 3.52 µM) for the first, 5 µg/mL (≈ 15.8 µM) for the second.

First: COc1ccc(CCN(C)c2ncnc3sccc23)cc1OC
Second: CC(=O)C(Cc1ccc(Cl)nc1)Cc1ccc(Cl)nc1
The solubility kinetic of the first is higher: > 49.4 µg/mL for the first, 44.9 µg/mL (≈ 145 µM) for the second.

Compared with COc1cc2c(C#N)c(N3CCCCC3)nc(N)c2c(N)n1, Cc1cc(=O)[nH]c(SCC(=O)Nc2ccc3c(c2)CCC3)c1C#N is 2.2-fold lower in solubility kinetic: 39.8 µg/mL (≈ 133 µM) for the first, 17.7 µg/mL (≈ 52.1 µM) for the second.

Going from O=C(NCc1ccc(F)cc1F)c1cc(COc2c(F)cccc2F)on1 to O=C(Nc1ncccn1)c1cc(-c2ccc(F)cc2)nc2ccccc12, the solubility kinetic rises from 1.5 µg/mL (≈ 3.94 µM) to 44.5 µg/mL (≈ 129 µM) (30-fold).

CN(C)CCC#CC1(O)c2ccccc2-c2ccccc21 and CN(C)Cc1c(O)ccc2ccccc12 are within 1.5-fold of each other in solubility kinetic: 32.2 µg/mL (≈ 116 µM) for the first, 29.8 µg/mL (≈ 148 µM) for the second.

First: O=[N+]([O-])C1=CC=C2C(=NC3(CCCCC3)N2O)C1=NCCc1ccccc1
Second: Cc1ccc(C)c(CN2C(=O)NC3(CCCCCC3)C2=O)c1
The solubility kinetic of the first is 2.6-fold lower: 1.4 µg/mL (≈ 3.82 µM) for the first, 3.7 µg/mL (≈ 12.3 µM) for the second.

Cc1csc(SC(C)C(=O)NCc2ccc3c(c2)OCO3)n1 (centres undefined) and Cc1nn(CC(=O)NCc2ccco2)c(C)c1[N+](=O)[O-] cannot be ordered by solubility kinetic: 49 µg/mL (≈ 146 µM) for the first, > 41.7 µg/mL for the second.

NC(=O)C(=O)NCCCN1CCOCC1 and CC(C)C[C@H](NC(=O)NCCC1=CCCCC1)C(=O)O cannot be ordered by solubility kinetic: > 32.3 µg/mL for the first, 40.9 µg/mL (≈ 145 µM) for the second.

Going from ClCc1nc2ccccc2c2ccccc12 to Cc1nc2ccccc2c(=O)n1-c1ccc([N+](=O)[O-])cc1, the solubility kinetic rises from 3.2 µg/mL (≈ 14.1 µM) to > 42.2 µg/mL.

COc1ccc(/C=C/c2c([N+](=O)[O-])c(=O)n(C)c(=O)n2C)cc1 and Cn1c(N)c(C(=O)COC(=O)c2ccccc2C(=O)c2ccc(Cl)c([N+](=O)[O-])c2)c(=O)n(C)c1=O are within 1.5-fold of each other in solubility kinetic: 3.4 µg/mL (≈ 10.7 µM) for the first, 3.2 µg/mL (≈ 6.39 µM) for the second.

COc1cc([N+](=O)[O-])ccc1NC(=O)NCCCN1CCCC1=O and COc1ccc(S(=O)(=O)NCCCN2CCCC2=O)c(OC)c1 cannot be ordered by solubility kinetic: > 50.5 µg/mL for the first, > 51.4 µg/mL for the second.

First: COc1cccc(/C=N/c2nc3ccccc3[nH]2)c1O
Second: CC1CCCCC1NC(=O)C(C)N1C(=O)c2ccccc2C1=O (centres undefined)
The solubility kinetic of the first is lower: 33.2 µg/mL (≈ 124 µM) for the first, > 47.2 µg/mL for the second.

Compared with NC(=O)NC(=O)COC(=O)/C=C/c1cccs1, CC(C)(C)C(=O)NC1(C(F)(F)F)NC(=O)N(c2ccccc2F)C1=O (centres undefined) is higher in solubility kinetic: 10.4 µg/mL (≈ 40.9 µM) for the first, > 54.2 µg/mL for the second.

First: C=CCSc1nc(=O)n2ccc(C)cc2n1
Second: COc1ccc(C)cc1NC(=O)NC1CCCCCCC1
The solubility kinetic of the first is higher: 31.7 µg/mL (≈ 136 µM) for the first, < 0.3 µg/mL for the second.

For N#Cc1ccc(S(=O)(=O)N2CCN(c3ncccn3)CC2)cc1, the solubility kinetic was 1.9 µg/mL (≈ 5.77 µM).
